ChEMBL document CHEMBL5518193, “Discovery of N-alkyl-N-benzyl thiazoles as novel TRPC antagonists for the treatment of glioblastoma multiforme” (Eur J Med Chem, 2024)
Activity calls are given as the source filed them. No cut-off for these calls is given here.

Target: T1, Short transient receptor potential channel 6 (Mus musculus) (UniProt Q61143)
T1 sequence (whole entry): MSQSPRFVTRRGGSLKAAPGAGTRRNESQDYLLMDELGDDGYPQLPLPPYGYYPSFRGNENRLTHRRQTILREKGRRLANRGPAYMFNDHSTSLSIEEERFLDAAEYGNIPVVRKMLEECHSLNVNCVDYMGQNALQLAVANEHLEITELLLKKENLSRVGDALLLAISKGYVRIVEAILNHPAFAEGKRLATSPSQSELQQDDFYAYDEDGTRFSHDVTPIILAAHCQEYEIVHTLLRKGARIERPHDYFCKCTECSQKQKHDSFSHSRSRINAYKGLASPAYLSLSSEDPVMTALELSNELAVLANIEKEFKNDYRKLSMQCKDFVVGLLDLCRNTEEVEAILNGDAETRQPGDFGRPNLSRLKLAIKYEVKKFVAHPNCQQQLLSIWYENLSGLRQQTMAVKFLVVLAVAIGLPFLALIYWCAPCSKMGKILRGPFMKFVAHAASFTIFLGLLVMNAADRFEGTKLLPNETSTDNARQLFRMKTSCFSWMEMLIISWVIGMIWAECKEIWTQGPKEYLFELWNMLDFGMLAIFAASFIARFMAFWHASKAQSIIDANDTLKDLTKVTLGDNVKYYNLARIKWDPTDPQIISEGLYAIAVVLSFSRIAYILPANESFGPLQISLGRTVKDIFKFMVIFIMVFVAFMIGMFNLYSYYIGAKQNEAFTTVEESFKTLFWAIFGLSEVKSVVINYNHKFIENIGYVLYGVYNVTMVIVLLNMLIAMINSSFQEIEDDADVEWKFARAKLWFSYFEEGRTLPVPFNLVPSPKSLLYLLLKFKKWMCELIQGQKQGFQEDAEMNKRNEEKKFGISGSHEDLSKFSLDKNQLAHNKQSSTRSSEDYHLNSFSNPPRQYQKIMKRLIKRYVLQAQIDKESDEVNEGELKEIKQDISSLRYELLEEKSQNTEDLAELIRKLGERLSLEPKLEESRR
Test: Antagonist activity at mouse TRPC6 stably expressed in HEK293 cells assessed as inhibition of calcium influx at 10 uM by calcium fluorescence assay relative to control
Format: cell-based
Conditions: not given

SMILES | inhibition
CCOC(=O)c1csc(N(CCNC(=O)OC(C)(C)C)C(=O)c2ccc([N+](=O)[O-])cc2)n1 | 30.3%
CCOC(=O)c1csc(N(CCN)Cc2cccc(F)c2F)n1 | 14.7%
CCOC(=O)c1csc(NCCN)n1 | 19.3%
CCOC(=O)c1csc(N(CCN)Cc2cccc([N+](=O)[O-])c2)n1 | 22.1%
CCOC(=O)c1csc(N(CCN)Cc2ccccc2)n1 | 30.5%
NCCN(Cc1cccc(C(F)(F)F)c1)c1nc(C(=O)Nc2ccc(O)cc2)cs1 | 10.8%
CCOC(=O)c1csc(N(CCN)C(=O)c2ccc([N+](=O)[O-])cc2)n1 | 23%
NCCN(Cc1ccc2ccccc2c1)c1nc(C(=O)NC23CC4CC(CC(C4)C2)C3)cs1 | 35.6%
CCOC(=O)c1csc(N(CCN)Cc2ccc(OC(F)F)cc2)n1 | 26.1%
NCCN(Cc1ccc2ccccc2c1)c1nc(C(=O)O)cs1 | 29%
CCOC(=O)c1csc(N(CCNC(=O)OC(C)(C)C)C(=O)c2ccc(C(F)(F)F)cc2)n1 | 18.7%
CCOC(=O)c1csc(N(CCN)Cc2c(F)c(F)c(F)c(F)c2F)n1 | 29.2%
CCOC(=O)c1csc(N(CCN)Cc2ccc([N+](=O)[O-])cc2)n1 | 28.3%
CCOC(=O)c1csc(N(CCNS(C)(=O)=O)Cc2ccc3ccccc3c2)n1 | 32.4%
CCOC(=O)c1csc(N(CCNS(N)(=O)=O)Cc2ccc3ccccc3c2)n1 | 0.8%
NCCN(Cc1cccc(C(F)(F)F)c1)c1nc(C(=O)Nc2ncc[nH]2)cs1 | 18.5%

Same assay, conditions: filed as antagonist

SMILES | inhibition
CCOC(=O)c1csc(N(CCN)C(=O)c2ccc(C(F)(F)F)cc2)n1 | 44.2%
CCOC(=O)c1csc(N(CCN)Cc2cccc3ccccc23)n1 | 77.6%
CCOC(=O)c1csc(N(CCN)Cc2ccc3ccccc3n2)n1 | 56.6%
CCOC(=O)c1csc(N(CCN)Cc2ccc3cc(Br)ccc3c2)n1 | 56.8%
CCOC(=O)c1csc(N(CCN)Cc2cccc(OC(F)F)c2)n1 | 40.9%
CCOC(=O)c1csc(N(CCN)Cc2cc(F)ccc2Br)n1 | 59.5%
CCOC(=O)c1csc(N(CCN)Cc2cccc(C(F)(F)F)c2)n1 | 92.2%
CCN(CC)CCNC(=O)c1csc(N(CCN)Cc2cccc(C(F)(F)F)c2)n1 | 50.6%
CCOC(=O)c1csc(N(CCN)Cc2ccc3ccccc3c2)n1 | 97.9%
NCCN(Cc1cccc(C(F)(F)F)c1)c1nc(C(=O)NCCc2ccccc2)cs1 | 81.9%
CCOC(=O)c1csc(N(CCN)Cc2ccc(C(F)(F)F)cc2)n1 | 84.6%
COc1cccc2sc(N(CCN(C)C)C(=O)c3ccc4c(c3)CCCC4)nc12 | 84.8%
CCN(CC)CCNC(=O)c1csc(N(CCN)Cc2ccc3ccccc3c2)n1 | 53.3%

Target: T2, Short transient receptor potential channel 6 (Homo sapiens, UniProt Q9Y210)
T2 sequence (Q9Y210 whole entry): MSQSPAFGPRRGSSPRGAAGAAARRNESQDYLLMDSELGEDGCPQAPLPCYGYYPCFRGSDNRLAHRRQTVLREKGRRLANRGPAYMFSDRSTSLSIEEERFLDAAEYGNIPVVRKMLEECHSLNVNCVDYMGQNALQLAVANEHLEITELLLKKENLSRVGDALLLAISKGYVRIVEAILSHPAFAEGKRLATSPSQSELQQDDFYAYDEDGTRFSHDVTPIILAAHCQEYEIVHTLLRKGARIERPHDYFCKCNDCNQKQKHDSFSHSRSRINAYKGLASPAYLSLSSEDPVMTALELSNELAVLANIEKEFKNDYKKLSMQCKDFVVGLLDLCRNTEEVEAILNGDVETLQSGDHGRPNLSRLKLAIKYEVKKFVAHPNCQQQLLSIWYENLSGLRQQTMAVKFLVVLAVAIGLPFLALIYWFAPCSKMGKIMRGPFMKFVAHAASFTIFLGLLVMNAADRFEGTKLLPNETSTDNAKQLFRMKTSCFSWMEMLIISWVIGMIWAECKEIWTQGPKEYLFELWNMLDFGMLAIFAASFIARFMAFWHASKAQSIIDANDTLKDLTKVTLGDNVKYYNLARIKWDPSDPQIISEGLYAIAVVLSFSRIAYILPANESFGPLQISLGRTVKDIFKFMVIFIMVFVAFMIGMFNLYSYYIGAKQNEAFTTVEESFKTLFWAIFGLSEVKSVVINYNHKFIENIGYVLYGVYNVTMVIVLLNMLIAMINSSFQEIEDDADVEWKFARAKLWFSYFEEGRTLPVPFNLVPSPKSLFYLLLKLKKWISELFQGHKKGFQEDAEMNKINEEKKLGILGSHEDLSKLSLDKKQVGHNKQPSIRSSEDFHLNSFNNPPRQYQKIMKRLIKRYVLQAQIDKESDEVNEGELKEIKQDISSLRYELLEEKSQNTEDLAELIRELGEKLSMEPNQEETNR
Test: Antagonist activity at TRPC6 (unknown origin) assessed as inhibition of channel activity
Conditions: not given

SMILES | IC50
Cc1sc(Nc2ccc(Cl)cc2F)nc1C(=O)N1CCC[C@H](C)[C@@H]1C | 21 nM
C=C[C@@](C)(O)CC[C@H]1C(=C)C[C@H](OC(=O)NC)[C@H]2C(C)(C)CCC[C@]12C | 5.8 nM
CC(C)(C)c1ccc(Oc2ccc(C(=O)N3CCC(c4ccc(N)nn4)CC3)cc2)cc1 | 13 nM
N#Cc1ccc(O[C@@H]2c3ccccc3C[C@@H]2N2CCC[C@@H](N)C2)cc1 | 0.22 nM
COc1cccc2sc(N(CCN(C)C)C(=O)c3ccc4c(c3)CCCC4)nc12 | 4200 nM
CCOC(=O)N1CCC(C)(C2C=C(O)N3N=C(C)C(c4ccc(F)cc4)C3=N2)CC1 (stereo not drawn) | 1000 nM
CC1CC(C)CN(C(=O)c2csc(Nc3ccc4c(c3)OCO4)n2)C1 (stereo not drawn) | 10 nM

Target: T3, Short transient receptor potential channel 3 (Homo sapiens, UniProt Q13507)
T3 sequence (Q13507 whole entry): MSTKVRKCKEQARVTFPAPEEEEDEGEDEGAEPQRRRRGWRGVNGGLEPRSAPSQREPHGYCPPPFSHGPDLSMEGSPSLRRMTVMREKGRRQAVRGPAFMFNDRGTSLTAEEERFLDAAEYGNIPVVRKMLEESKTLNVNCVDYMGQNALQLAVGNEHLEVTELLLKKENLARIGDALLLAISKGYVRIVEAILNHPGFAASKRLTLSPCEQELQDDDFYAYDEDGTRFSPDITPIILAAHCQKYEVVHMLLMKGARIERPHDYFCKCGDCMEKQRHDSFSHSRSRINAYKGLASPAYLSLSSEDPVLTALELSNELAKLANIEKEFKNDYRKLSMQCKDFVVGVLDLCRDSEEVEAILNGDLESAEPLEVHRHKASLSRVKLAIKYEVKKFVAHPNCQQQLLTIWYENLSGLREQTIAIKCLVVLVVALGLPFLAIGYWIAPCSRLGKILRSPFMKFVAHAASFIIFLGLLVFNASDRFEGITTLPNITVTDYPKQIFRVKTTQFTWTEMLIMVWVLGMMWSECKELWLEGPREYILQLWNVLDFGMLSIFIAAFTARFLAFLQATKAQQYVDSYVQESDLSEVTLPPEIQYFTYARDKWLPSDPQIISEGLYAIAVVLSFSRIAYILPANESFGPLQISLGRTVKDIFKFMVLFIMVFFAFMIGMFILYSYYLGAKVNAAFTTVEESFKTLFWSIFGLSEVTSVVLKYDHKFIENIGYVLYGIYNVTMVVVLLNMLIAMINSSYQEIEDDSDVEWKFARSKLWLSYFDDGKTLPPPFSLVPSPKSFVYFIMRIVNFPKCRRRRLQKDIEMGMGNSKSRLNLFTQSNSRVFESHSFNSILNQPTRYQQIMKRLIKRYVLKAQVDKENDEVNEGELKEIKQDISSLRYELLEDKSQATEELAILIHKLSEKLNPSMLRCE
Test: Antagonist activity at TRPC3 (unknown origin) assessed as inhibition of channel activity
Conditions: not given

SMILES | IC50
Cc1sc(Nc2ccc(Cl)cc2F)nc1C(=O)N1CCC[C@H](C)[C@@H]1C | 3 nM
C=C[C@@](C)(O)CC[C@H]1C(=C)C[C@H](OC(=O)NC)[C@H]2C(C)(C)CCC[C@]12C | 840 nM
CC1CCCN(C(=O)c2nc(Nc3cc4c(cc3F)OCO4)sc2Cl)C1C (stereo not drawn) | 5 nM
CC1CC(C)CN(C(=O)c2csc(Nc3ccc4c(c3)OCO4)n2)C1 (stereo not drawn) | 10 nM

System: U-87 MG
Test: Antitumor activity against human U87 cells xenografted in BALB/c nude mouse assessed as tumor growth inhibition at 50 mg/kg/day administered as liposome encapsulated form for 15 days and measured every 3 days by vernier caliper
Format: functional, U-87MG ATCC
Conditions: 360 h, time 15 day, read-out: TGI

SMILES | inhibition in vivo at 50 mg/kg/day
Cn1nnc2c(C(N)=O)ncn2c1=O [TEMOZOLOMIDE] | 36.5%

Target: T1, Short transient receptor potential channel 6 (Mus musculus)
Test: Antagonist activity at mouse TRPC6 stably expressed in HEK293 cells assessed as inhibition of calcium influx at 10 uM by calcium fluorescence assay
Format: cell-based
Conditions: not given

SMILES | inhibition
CC(=O)NCCN(Cc1ccc2ccccc2c1)c1nc(C(=O)Nc2ccc(O)cc2)cs1 | inactive

Target: T4, Short transient receptor potential channel 6 (Homo sapiens) (UniProt Q9Y210)
T4 sequence (whole entry): T2 sequence (Q9Y210 whole entry)
Test: Antagonist activity at human TRPC6 assessed as inhibition of channel activity at 10 uM relative to control
Conditions: filed as antagonist

SMILES | inhibition
COc1cccc2sc(N(CCN(C)C)C(=O)c3ccc4c(c3)CCCC4)nc12 | 84.4%
